Test results from PubChem BioAssay AID2060898 (Molecular Pharmacology Branch, DTP, NCI, 2025).

Tested on: 616215-338-R-J1-PDC complex spheroid viability
Assay: Anticancer human tumor 616215-338-R-J1-PDC patient-derived colon adenocarcinoma cell line growth inhibition [RAS]
Conditions: for IC50: curve of first compound; for viability, T/C: stronger effect = lower value
Excerpt: RAS pathway inhibitors in Combinations in Complex Spheroids
A high-throughput screen of multi-cell type tumor spheroids was designed to identify active combinations of RAS pathway inhibitors and targeted small molecules. Complex spheroids include a stromal component modeled by human endothelial cells (HUVEC) and fibroblasts modeled by human mesenchymal stem cells (MSCs). The concentration ranges selected for each drug and investigational agent were based upon clinically achievable concentrations if the clinical Cmax of the agent was known.
Compounds. The drugs and investigational agents: abemaciclib (NSC768073), cobimetinib (NSC768068), divarasib (GDC6063, NSC841802), docetaxel (NSC628503), GDC-1971 (RLY-1971, NSC841576), gemcitabine (NSC613327), inavolisib (NSC800729), ipatasertib (NSC767898), KB-0742 (NSC834161), MRTX-1133 (NSC836407), osimertinib (NSC779217), RMC-4630 (NSC839698), RMC-6236 (NSC851965), RMC-6291 (NSC852671), Ro-3306 (NSC812927), sapanisertib (NSC764658), SN-38 (NSC673596), staurosporine (NSC755774), SY5609 (NSC837396), and tovorafenib (DAY101, NSC766906), were obtained from the National Cancer Institute (NCI) Developmental Therapeutics Program Chemical Repository. The FDA-approved anticancer drug set is available from the NCI Developmental Therapeutics Program. […] The stock solutions were prepared in dimethyl sulfoxide (DMSO, Sigma-Aldrich, St. Louis, MO, cat. D2650) at 800-fold the tested concentration and stored at -70 degrees C prior to their use. All drugs and investigational agents were tested over a range starting from a high concentration at or near the clinical Cmax and decreasing in half-log increments. If the clinical Cmax for an agent had not been determined, the highest concentration tested was 10 microM.
Cell Culture. All cells were maintained in an incubator at 37 degrees C and 5% CO2 with 95% humidity. The PDC lines were cultured according to standard operating procedures established by the NCI PDMR. All PDCs were thawed and cultured in Matrigel-coated flasks prepared with a working solution of 1X Ham's F-12 nutrient mix, without supplementation (Invitrogen, Waltham, MA, cat. 11765054), 100 U/mL penicillin-streptomycin (Invitrogen, cat. 15140122), and 2.5% Matrigel (Corning Inc., Corning, NY, cat. 354248) for the first three passages. The 362531-283-R-J2-PDC and 782815-120-R-J1-PDC lines were cultured in 6C/Colon 1B media, which includes advanced DMEM/F-12 (Thermo Fisher Scientific, cat. 12634028), 10 mM HEPES (Thermo Fisher Scientific, cat. 15630080), 1X GlutaMAX supplement (Thermo Fisher Scientific, cat. 35050061), 0.1 mg/mL primocin (InvivoGen, San Diego, CA, cat. ant-pm-2), 10% defined fetal bovine serum, heat inactivated (HyClone Laboratories Inc., Logan, UT, cat. SH30070.03HI), 50% L-WRN conditioned media (ATCC, cat. CRL-3276), 1.25 mM N-Acetyl-L-cysteine (Sigma-Aldrich, cat. A9165), 10 mM nicotinamide (Sigma-Aldrich, cat. N0636), 1X B-27 supplement (Thermo Fisher Scientific, cat. 17504044), 1X N-2 supplement (Thermo Fisher Scientific, cat. 17502048), 50 ng/mL human EGF (Thermo Fisher Scientific, cat. PHG0311), and 10 microM Y-27632 dihydrochloride (Tocris Bioscience, cat. 1254). The K12877-001-R-J1-PDC line was cultured in 6I media, which includes all 6C/Colon 1B media plus 10 ng/mL human FGF-10 (PeproTech, cat. 100-26), 1 ng/mL human FGF-2 (PeproTech, cat. 100-18B), 1 µM prostaglandin E2 (Tocris Bioscience, cat. 2296), […] hydrocortisone (Sigma-Aldrich, cat. H4001), and […] bovine insulin (Sigma-Aldrich, cat. I6634). The K86415-001-R-J1-PDC line was cultured in 6D media, which includes all 6C/Colon 1B media components minus the L-WRN conditioned media. The 485176-168-R4-J1-PDC was cultured in PANC media, which includes all 6C/Colon 1B media plus 100 ng/mL human FGF-10 (PeproTech, cat. 100-26), 500 nM SB-431542 (Selleckchem, cat. S1067), and 10 nM gastrin (Tocris Bioscience, cat. 3006). […]

[1] = second compound 0.0316 µM, first compound 0.0316 µM
[2] = second compound 0.0316 µM, first compound 0.1 µM
[3] = second compound 0.0316 µM, first compound 0.316 µM
[4] = second compound 0.0316 µM, first compound 1 µM
[5] = second compound 0.0316 µM, first compound 3.16 µM
[6] = second compound 0.0316 µM, first compound 10 µM
[7] = second compound 0.1 µM, first compound 0.0316 µM
[8] = second compound 0.1 µM, first compound 0.1 µM
[9] = second compound 0.1 µM, first compound 0.316 µM
[10] = second compound 0.1 µM, first compound 1 µM
[11] = second compound 0.1 µM, first compound 3.16 µM
[12] = second compound 0.1 µM, first compound 10 µM
[13] = second compound 0.316 µM, first compound 0.0316 µM
[14] = second compound 0.316 µM, first compound 0.1 µM
[15] = second compound 0.316 µM, first compound 0.316 µM
[16] = second compound 0.316 µM, first compound 1 µM
[17] = second compound 0.316 µM, first compound 3.16 µM
[18] = second compound 0.316 µM, first compound 10 µM
[19] = second compound 1 µM, first compound 0.0316 µM
[20] = second compound 1 µM, first compound 0.1 µM
[21] = second compound 1 µM, first compound 0.316 µM
[22] = second compound 1 µM, first compound 1 µM
[23] = second compound 1 µM, first compound 3.16 µM
[24] = second compound 1 µM, first compound 10 µM
[25] = second compound 3.16 µM, first compound 0.0316 µM
[26] = second compound 3.16 µM, first compound 0.1 µM
[27] = second compound 3.16 µM, first compound 0.316 µM
[28] = second compound 3.16 µM, first compound 1 µM
[29] = second compound 3.16 µM, first compound 3.16 µM
[30] = second compound 3.16 µM, first compound 10 µM
[31] = second compound 10 µM, first compound 0.0316 µM
[32] = second compound 10 µM, first compound 0.1 µM
[33] = second compound 10 µM, first compound 0.316 µM
[34] = second compound 10 µM, first compound 1 µM
[35] = second compound 10 µM, first compound 3.16 µM
[36] = second compound 10 µM, first compound 10 µM
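Also: spheroids exposed to agents for seven days before viability readout.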
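For viability, T/C in this document: 100% = DMSO vehicle control viability.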

CCC(CC)c1cc(NC2CCC(N)C2)n2nccc2n1 (stereo unspecified) + C#Cc1c(F)ccc2cc(O)cc(-c3ncc4c(N5CC6CCC(C5)N6)nc(OCC56CCCN5CC(F)C6)nc4c3F)c12 showed an IC50 (second compound 0.0316 µM) of 1.78 µM, an IC50 (second compound 0.1 µM) of 1.78 µM and an IC50 (second compound 0.316 µM) of 1.84 µM. It also gave an IC50 (second compound 1 µM) of 1.85 µM, an IC50 (second compound 3.16 µM) of 1.51 µM and an IC50 (second compound 10 µM) of 1.24 µM. The viability, T/C [1] was 102%, the viability, T/C [2] was 98.3% and the viability, T/C [3] was 109%. For the same compound, the viability, T/C [4] was 99.3%, the viability, T/C [5] was 0.29% and the viability, T/C [6] was 1.51%. It also gave a viability, T/C [7] of 104%, a viability, T/C [8] of 105% and a viability, T/C [9] of 96.3%. For the same compound, the viability, T/C [10] was 99.9%, the viability, T/C [11] was 0.27% and the viability, T/C [12] was 0.21%. The viability, T/C [13] was 112%, the viability, T/C [14] was 111% and the viability, T/C [15] was 101%. For the same compound, the viability, T/C [16] was 106%, the viability, T/C [17] was 0.21% and the viability, T/C [18] was 1.88%. For the same compound, the viability, T/C [19] was 105%, the viability, T/C [20] was 110% and the viability, T/C [21] was 113%. It also gave a viability, T/C [22] of 106%, a viability, T/C [23] of 1.09% and a viability, T/C [24] of 1.83%. The viability, T/C [25] was 115%, the viability, T/C [26] was 111% and the viability, T/C [27] was 121%. For the same compound, the viability, T/C [28] was 77.7%, the viability, T/C [29] was 0.19% and the viability, T/C [30] was 1.03%. For the same compound, the viability, T/C [31] was 83.3%, the viability, T/C [32] was 74.5% and the viability, T/C [33] was 108%. The viability, T/C [34] was 61.3%, the viability, T/C [35] was 3.3% and the viability, T/C [36] was 0.3%.

With Cc1nc(N2CCC3(CC2)COC(C)C3N)c(CO)nc1Sc1ccnc(N)c1Cl (stereo unspecified) + C#Cc1c(F)ccc2cc(O)cc(-c3ncc4c(N5CC6CCC(C5)N6)nc(OCC56CCCN5CC(F)C6)nc4c3F)c12 the IC50 (second compound 0.0316 µM) was > 10 µM, the IC50 (second compound 0.1 µM) was > 10 µM and the IC50 (second compound 0.316 µM) was 5.23 µM. It also gave an IC50 (second compound 1 µM) of 0.537 µM, an IC50 (second compound 3.16 µM) of 0.302 µM and an IC50 (second compound 10 µM) of 0.182 µM. It also gave a viability, T/C [1] of 99.5%, a viability, T/C [2] of 108% and a viability, T/C [3] of 116%. The viability, T/C [4] was 95.2%, the viability, T/C [5] was 88.5% and the viability, T/C [6] was 67.8%. For the same compound, the viability, T/C [7] was 101%, the viability, T/C [8] was 113% and the viability, T/C [9] was 104%. It also gave a viability, T/C [10] of 79.6%, a viability, T/C [11] of 68% and a viability, T/C [12] of 63.1%. It also gave a viability, T/C [13] of 113%, a viability, T/C [14] of 116% and a viability, T/C [15] of 98.3%. For the same compound, the viability, T/C [16] was 75.3%, the viability, T/C [17] was 57.7% and the viability, T/C [18] was 42.1%. The viability, T/C [19] was 98.2%, the viability, T/C [20] was 97.2% and the viability, T/C [21] was 52.7%. The viability, T/C [22] was 48.5%, the viability, T/C [23] was 48.2% and the viability, T/C [24] was 43.7%. It also gave a viability, T/C [25] of 88.8%, a viability, T/C [26] of 67.9% and a viability, T/C [27] of 49.2%. For the same compound, the viability, T/C [28] was 49.9%, the viability, T/C [29] was 41.2% and the viability, T/C [30] was 54.1%. It also gave a viability, T/C [31] of 52.2%, a viability, T/C [32] of 61.4% and a viability, T/C [33] of 43.8%. It also gave a viability, T/C [34] of 37%, a viability, T/C [35] of 34.6% and a viability, T/C [36] of 33%.

For NC1c2ccccc2OC12CCN(c1cnc3c(N4CCCc5ncccc54)n[nH]c3n1)CC2 (stereo unspecified) + C#Cc1c(F)ccc2cc(O)cc(-c3ncc4c(N5CC6CCC(C5)N6)nc(OCC56CCCN5CC(F)C6)nc4c3F)c12, the IC50 (second compound 0.0316 µM) was 4.63 µM, the IC50 (second compound 0.1 µM) was 4.73 µM and the IC50 (second compound 0.316 µM) was 1.97 µM. The IC50 (second compound 1 µM) was 0.198 µM, the IC50 (second compound 3.16 µM) was 0.0347 µM and the IC50 (second compound 10 µM) was < 0.0316 µM. The viability, T/C [1] was 128%, the viability, T/C [2] was 112% and the viability, T/C [3] was 75.9%. For the same compound, the viability, T/C [4] was 81.6%, the viability, T/C [5] was 67.6% and the viability, T/C [6] was 29.6%. It also gave a viability, T/C [7] of 123%, a viability, T/C [8] of 105% and a viability, T/C [9] of 88.5%. It also gave a viability, T/C [10] of 61.8%, a viability, T/C [11] of 56.6% and a viability, T/C [12] of 43.4%. The viability, T/C [13] was 114%, the viability, T/C [14] was 84.4% and the viability, T/C [15] was 63.2%. The viability, T/C [16] was 55.1%, the viability, T/C [17] was 49.2% and the viability, T/C [18] was 32.4%. It also gave a viability, T/C [19] of 88.6%, a viability, T/C [20] of 59.5% and a viability, T/C [21] of 43%. For the same compound, the viability, T/C [22] was 33.8%, the viability, T/C [23] was 43% and the viability, T/C [24] was 26.6%. The viability, T/C [25] was 50.5%, the viability, T/C [26] was 44.5% and the viability, T/C [27] was 50.7%. The viability, T/C [28] was 39%, the viability, T/C [29] was 35.6% and the viability, T/C [30] was 35.7%. The viability, T/C [31] was 40%, the viability, T/C [32] was 44.4% and the viability, T/C [33] was 36.2%. It also gave a viability, T/C [34] of 29.5%, a viability, T/C [35] of 33.4% and a viability, T/C [36] of 31.6%.
